Measurements taken from US20160166543A1 (priority 2014, published 2016).
Converted amounts (≈) assume the structure as drawn. Read-outs that look alike come from different tables or passages of the source.

Tests used:
[1] = in vivo, cited from earlier work
[2] = humans; cited from earlier work
physchem = type: physicochemical
Protocol: There are different types of cyclodextrins available. For the purpose of this patent application, the cyclodextrin can be one or more the following—alpha cyclodextrin (alpha CD), beta cyclodextrin (beta CD), gamma cyclodextrin (gamma CD), hydroxypropyl beta cyclodextrin (HPBCD), sulfobutyl ether beta cyclodextrin (SBEBCD), and randomly methylated beta cyclodextrin. […] The concentration of cyclodextrin in the samples ranged from 0 mg/mL to 12.5 mg/mL.

[3] = older adults, cited from earlier work
[4] = rat, in vivo, po; cited from earlier work

CN(C)CCOC(C)(c1ccccc1)c1ccccn1 (stereo not shown) [Doxylamine succinate]
apparent oral clearance ([1]; po): 217 mL/min
elimination half-life [1]: 10.1 h
mean Cmax (maximum blood concentration) [1]: 99 ng/mL
median lethal dose [2]: 50 to 500 mg/kg

COc1ccc2[nH]cc(CCNC(C)=O)c2c1 [Melatonin]
increase of solubility in water (physchem): ~60%
saturation solubility in water (physchem): 1750 µg/mL
solubility (physchem; water, thermodynamic from solid, saturation solubility in water): ~1750 µg/mL (≈ 7.53 mM)
Tmax ([3]; high dose (>2 mg)): 1.5 h
Tmax ([3]; low dose (<0.5 mg)): 1.3 h
LD50 [4]: over 3200 mg/kg
